Test system: EpidermFT™ Skin Model (EFT-400) full thickness skin cultures
Assay: Affymetrix GeneChip HG U133 Plus 2.0 microarray global gene expression, agent-exposed vs untreated skin cultures
Type: cell-based, human
[1] = Salicin 0.5% vs Untreated Control, 24 hr, direction down
[2] = probe 201286_at, Table 3 skin structure
[3] = probe 203535_at, Table 3 skin structure
[4] = probe 204422_s_at, Table 3 skin structure
[5] = probe 206026_s_at, Table 3 skin structure
[6] = probe 209126_x_at, Table 3 skin structure
[7] = probe 209792_s_at, Table 3 skin structure

## OCc1ccccc1O[C@@H]1O[C@H](CO)[C@@H](O)[C@H](O)[C@H]1O [Salicin, 2-(Hydroxymethyl)phenyl β-D-glucospyranoside]
[1]
  Fold change WNK1 (211993_at): 2.037
  Fold change ZBTB1 (1557036_at): 2.05
  Fold change ZDHHC21 (241946_at): 2.09
  Fold change ZFYVE21 (219929_s_at): 2.001
  Fold change ZHX1 (223213_s_at): 2.071
  Fold change ZHX1 (223214_s_at): 2.15
  Fold change ZNF85 (1554445_at): 2.143
  Fold change ZNF561 (235200_at): 2.135
  Fold change ZNF589 (219968_at): 2.059
  Fold change ZNF823 (229732_at): 2.045
Probe 200606_at, 0.5%, 24 hr
  Direction DSP: down
  Fold change DSP: 2.848
Probe 200800_s_at, 0.5%, 24 hr
  Direction HSPA1A /// HSPA1B: up
  Fold change HSPA1A /// HSPA1B: 3.112
Probe 200832_s_at, 0.5%, 24 hr
  Direction SCD: down
  Fold change SCD: 3.77
Probe 200965_s_at, 0.5%, 24 hr
  Direction ABLIM1: down
  Fold change ABLIM1: 11.88
Probe 201042_at, 0.5%, 24 hr
  Direction TGM2: up
  Fold change TGM2: 2.351
Probe 201044_x_at, 0.5%, 24 hr
  Direction DUSP1: up
  Fold change DUSP1: 3.726
Probe 201150_s_at, 0.5%, 24 hr
  Direction TIMP3: up
  Fold change TIMP3: 2.058
[2]
  Direction SDC1: down
  Fold change SDC1: 4.63
Probe 201287_s_at, 0.5%, 24 hr
  Direction SDC1: down
  Fold change SDC1: 3.32
Probe 201428_at, 0.5%, 24 hr
  Direction CLDN4: down
  Fold change CLDN4: 3.454
Probe 201474_s_at, 0.5%, 24 hr
  Direction ITGA3: down
  Fold change ITGA3: 2.052
Probe 201502_s_at, 0.5%, 24 hr
  Direction NFKBIA: up
  Fold change NFKBIA: 3.064
Probe 201656_at, 0.5%, 24 hr
  Direction ITGA6: down
  Fold change ITGA6: 4.442
Probe 201820_at, 0.5%, 24 hr
  Direction KRT5: down
  Fold change KRT5: 2.154
Probe 201839_s_at, 0.5%, 24 hr
  Direction EPCAM: down
  Fold change EPCAM: 2.093
Probe 201860_s_at, 0.5%, 24 hr
  Direction PLAT: up
  Fold change PLAT: 4.229
Probe 202053_s_at, 0.5%, 24 hr
  Direction ALDH3A2: down
  Fold change ALDH3A2: 4.399
Probe 202154_x_at, 0.5%, 24 hr
  Direction TUBB3: down
  Fold change TUBB3: 2.967
Probe 202340_x_at, 0.5%, 24 hr
  Direction NR4A1: up
  Fold change NR4A1: 2.338
Probe 202411_at, 0.5%, 24 hr
  Direction IFI27: down
  Fold change IFI27: 4.671
Probe 202422_s_at, 0.5%, 24 hr
  Direction ACSL4: up
  Fold change ACSL4: 3.786
Probe 202558_s_at, 0.5%, 24 hr
  Direction HSPA13: up
  Fold change HSPA13: 3.13
Probe 202609_at, 0.5%, 24 hr
  Direction EPS8: up
  Fold change EPS8: 2.334
Probe 202643_s_at, 0.5%, 24 hr
  Direction TNFAIP3: up
  Fold change TNFAIP3: 6.915
Probe 202687_s_at, 0.5%, 24 hr
  Direction TNFSF10: down
  Fold change TNFSF10: 20.31
Probe 202724_s_at, 0.5%, 24 hr
  Direction FOXO1: up
  Fold change FOXO1: 2.098
Probe 202826_at, 0.5%, 24 hr
  Direction SPINT1: down
  Fold change SPINT1: 4.585
Probe 202843_at, 0.5%, 24 hr
  Direction DNAJB9: up
  Fold change DNAJB9: 3.56
Probe 203184_at, 0.5%, 24 hr
  Direction FBN2: up
  Fold change FBN2: 2.028
[3]
  Direction S100A9: down
  Fold change S100A9: 2.59
Probe 203549_s_at, 0.5%, 24 hr
  Direction LPL: up
  Fold change LPL: 4.075
Probe 203708_at, 0.5%, 24 hr
  Direction PDE4B: up
  Fold change PDE4B: 5.314
Probe 203747_at, 0.5%, 24 hr
  Direction AQP3: down
  Fold change AQP3: 2.032
Probe 203810_at, 0.5%, 24 hr
  Direction DNAJB4: up
  Fold change DNAJB4: 2.053
Probe 203836_s_at, 0.5%, 24 hr
  Direction MAP3K5: up
  Fold change MAP3K5: 2.356
Probe 203887_s_at, 0.5%, 24 hr
  Direction THBD: down
  Fold change THBD: 3.137
Probe 203896_s_at, 0.5%, 24 hr
  Direction PLCB4: up
  Fold change PLCB4: 4.016
Probe 203980_at, 0.5%, 24 hr
  Direction FABP4: up
  Fold change FABP4: 2.251
Probe 204038_s_at, 0.5%, 24 hr
  Direction LPAR1: up
  Fold change LPAR1: 2.732
Probe 204135_at, 0.5%, 24 hr
  Direction FILIP1L: down
  Fold change FILIP1L: 2.996
Probe 204141_at, 0.5%, 24 hr
  Direction TUBB2A: down
  Fold change TUBB2A: 2.739
Probe 204256_at, 0.5%, 24 hr
  Direction ELOVL6: down
  Fold change ELOVL6: 3.121
Probe 204273_at, 0.5%, 24 hr
  Direction EDNRB: up
  Fold change EDNRB: 3.916
Probe 204379_s_at, 0.5%, 24 hr
  Direction FGFR3: down
  Fold change FGFR3: 5.288
Probe 204421_s_at, 0.5%, 24 hr
  Direction FGF2: up
  Fold change FGF2: 3.845
[4]
  Direction FGF2: up
  Fold change FGF2: 3.455
Probe 204636_at, 0.5%, 24 hr
  Direction COL17A1: down
  Fold change COL17A1: 3.576
Probe 204733_at, 0.5%, 24 hr
  Direction KLK6: down
  Fold change KLK6: 16.28
Probe 204734_at, 0.5%, 24 hr
  Direction KRT15: down
  Fold change KRT15: 3.6
Probe 204790_at, 0.5%, 24 hr
  Direction SMAD7: up
  Fold change SMAD7: 2.151
Probe 204897_at, 0.5%, 24 hr
  Direction PTGER4: up
  Fold change PTGER4: 2.525
Probe 204932_at, 0.5%, 24 hr
  Direction INFRSF11B: up
  Fold change INFRSF11B: 6.287
Probe 204944_at, 0.5%, 24 hr
  Direction PTPRG: up
  Fold change PTPRG: 2.299
Probe 204990_s_at, 0.5%, 24 hr
  Direction ITGB4: down
  Fold change ITGB4: 4.527
Probe 205014_at, 0.5%, 24 hr
  Direction FGFBP1: down
  Fold change FGFBP1: 3.406
Probe 205015_s_at, 0.5%, 24 hr
  Direction TGFA: down
  Fold change TGFA: 3.134
Probe 205110_s_at, 0.5%, 24 hr
  Direction FGF13: up
  Fold change FGF13: 2.158
Probe 205128_x_at, 0.5%, 24 hr
  Direction PTGS1: up
  Fold change PTGS1: 2.327
Probe 205207_at, 0.5%, 24 hr
  Direction IL6: up
  Fold change IL6: 3.197
Probe 205266_at, 0.5%, 24 hr
  Direction LIF: up
  Fold change LIF: 3.702
Probe 205410_s_at, 0.5%, 24 hr
  Direction ATP2B4: up
  Fold change ATP2B4: 3.984
Probe 205470_s_at, 0.5%, 24 hr
  Direction KLK11: down
  Fold change KLK11: 3.318
Probe 205547_s_at, 0.5%, 24 hr
  Direction TAGLN: up
  Fold change TAGLN: 2.426
Probe 205767_at, 0.5%, 24 hr
  Direction EREG: up
  Fold change EREG: 2.487
Probe 205782_at, 0.5%, 24 hr
  Direction FGF7: up
  Fold change FGF7: 3.158
Probe 205783_at, 0.5%, 24 hr
  Direction KLK13: down
  Fold change KLK13: 3.619
Probe 205830_at, 0.5%, 24 hr
  Direction CLGN: up
  Fold change CLGN: 2.486
Probe 205900_at, 0.5%, 24 hr
  Direction KRT1: down
  Fold change KRT1: 4.141
Probe 205931_s_at, 0.5%, 24 hr
  Direction CREB5: up
  Fold change CREB5: 9.909
Probe 205992_s_at, 0.5%, 24 hr
  Direction IL15: up
  Fold change IL15: 4.326
Probe 206025_s_at, 0.5%, 24 hr
  Direction TNFAIP6: up
  Fold change TNFAIP6: 3.182
[5]
  Direction TNFAIP6: up
  Fold change TNFAIP6: 2.52
Probe 206033_s_at, 0.5%, 24 hr
  Direction DSC3: down
  Fold change DSC3: 4.676
Probe 206176_at, 0.5%, 24 hr
  Direction BMP6: up
  Fold change BMP6: 7.765
Probe 206193_s_at, 0.5%, 24 hr
  Direction CDSN: down
  Fold change CDSN: 11.11
Probe 206249_at, 0.5%, 24 hr
  Direction MAP3K13: up
  Fold change MAP3K13: 2.252
Probe 206295_at, 0.5%, 24 hr
  Direction IL18: down
  Fold change IL18: 19.31
Probe 206407_s_at, 0.5%, 24 hr
  Direction CCL13: up
  Fold change CCL13: 5.516
Probe 206429_at, 0.5%, 24 hr
  Direction F2RL1: down
  Fold change F2RL1: 2.099
Probe 206569_at, 0.5%, 24 hr
  Direction IL24: up
  Fold change IL24: 8.737
Probe 206618_at, 0.5%, 24 hr
  Direction IL18R1: up
  Fold change IL18R1: 2.865
Probe 206643_at, 0.5%, 24 hr
  Direction HAL: down
  Fold change HAL: 55.87
Probe 206806_at, 0.5%, 24 hr
  Direction DGKI: up
  Fold change DGKI: 2.74
Probe 206924_at, 0.5%, 24 hr
  Direction IL11: up
  Fold change IL11: 9.694
Probe 207008_at, 0.5%, 24 hr
  Direction IL8RB: down
  Fold change IL8RB: 11.11
Probe 207324_s_at, 0.5%, 24 hr
  Direction DSC1: down
  Fold change DSC1: 12.95
Probe 207388_s_at, 0.5%, 24 hr
  Direction PTGES: up
  Fold change PTGES: 2.768
Probe 207442_at, 0.5%, 24 hr
  Direction CSF3: up
  Fold change CSF3: 11.09
Probe 207526_s_at, 0.5%, 24 hr
  Direction IL1RL1: up
  Fold change IL1RL1: 9.09
Probe 207710_at, 0.5%, 24 hr
  Direction LCE2B: down
  Fold change LCE2B: 200.5
Probe 207720_at, 0.5%, 24 hr
  Direction LOR: down
  Fold change LOR: 32.35
Probe 208188_at, 0.5%, 24 hr
  Direction KRT9: down
  Fold change KRT9: 2.539
Probe 208539_x_at, 0.5%, 24 hr
  Direction SPRR2B: down
  Fold change SPRR2B: 5.554
Probe 208591_s_at, 0.5%, 24 hr
  Direction PDE3B: up
  Fold change PDE3B: 2.851
Probe 208962_s_at, 0.5%, 24 hr
  Direction FADS1: up
  Fold change FADS1: 2.889
Probe 209125_at, 0.5%, 24 hr
  Direction KRT6A: down
  Fold change KRT6A: 2.034
[6]
  Direction KRT6B: down
  Fold change KRT6B: 3.952
Probe 209387_s_at, 0.5%, 24 hr
  Direction TM4SF1: up
  Fold change TM4SF1: 3.187
Probe 209437_s_at, 0.5%, 24 hr
  Direction SPON1: up
  Fold change SPON1: 2.36
Probe 209563_x_at, 0.5%, 24 hr
  Direction CALM1 /// CALM2 /// CALM3: down
  Fold change CALM1 /// CALM2 /// CALM3: 2.029
Probe 209602_s_at, 0.5%, 24 hr
  Direction GATA3: down
  Fold change GATA3: 15.7
Probe 209774_x_at, 0.5%, 24 hr
  Direction CXCL2: up
  Fold change CXCL2: 7.546
Probe 209790_s_at, 0.5%, 24 hr
  Direction CASP6: down
  Fold change CASP6: 2.668
[7]
  Direction KLK10: down
  Fold change KLK10: 4.49
Probe 209873_s_at, 0.5%, 24 hr
  Direction PKP3: down
  Fold change PKP3: 4.615
Probe 210020_x_at, 0.5%, 24 hr
  Direction CALML3: down
  Fold change CALML3: 11.27
Probe 210229_s_at, 0.5%, 24 hr
  Direction CSF2: up
  Fold change CSF2: 16.55
Probe 210287_s_at, 0.5%, 24 hr
  Direction FLT1: up
  Fold change FLT1: 3.95
Probe 210619_s_at, 0.5%, 24 hr
  Direction HYAL1: down
  Fold change HYAL1: 4.538

From US20120034613A1, “Apparatus and Method for Testing Relationships Between Gene Expression and Physical Appearance of Skin” (NSE Products, Inc., priority 2010, published 2012)
